From patent US7935823B2 (priority 2007, dated 2011)

Tests used:
[1] = system: ion channels associated with glutamate receptors; assay: Glutamate-stimulated calcium-ion uptake in rat brain synaptosomes; conditions: P2-fraction of synaptosomes from newborn rat brain; initial screening 5 uM
Description: Evaluation of the calcium-blocking properties of dimebon was conducted with P2-fraction of synaptosomes, which were isolated from the brain of newborn (8-11 days) rats according to the protocol described in [Bachurin et al. Neuroprotective and cognition enhancing properties of MK-801 flexible analogs. Structure-activity relationships./Ann. N.Y. Acad. Sci., 2001, v. 939, pp. 219-235]. In this test, the ability of the compounds to inhibit a specific uptake of calcium ions via ion channels associated with glutamate receptors was determined.
Synaptosomes were placed into the incubation buffer A (132 mM NaCl, 5 mM KCl, 5 mM HEPES) and were kept at 0 degrees Celsius (“C”) during the entire experiment. Aliquots of synaptosomes (50µl) were placed in the media A, containing investigated compounds and a preparation of the radiolabeled calcium, ^45Ca. […] A specific calcium uptake was calculated using the following equation K(43/21)=[(Ca4−Ca3)/(Ca2−Ca1)]*100% where: Ca1 is a calcium uptake in a control experiment (no glutamate or test compound added); Ca2 is a calcium uptake in the presence of glutamate only (Glutamate Induced Calcium Uptake—GICU); Ca3 is a calcium uptake in the presence of a test compound only (no glutamate added); Ca4 is a calcium uptake in the presence of both glutamate and a test compound.

C57/B female mice = assay: Geroprotector activity in aging mice; type: in vivo; conditions: 3 mg/kg per day in drinking water
Description: Dimebon was evaluated as an agent that prolongs life and improves the quality of life (characterized by changes in the amount of pathologies that accompany ageing) in the laboratory animals.
Experiments were conducted with C57/B female mice, starting from their age of 12 months. Mice were kept on cells, 10 animals per a cell. Both control and experimental group included 50 animals in each group. […] The day-night cycle was 12 hours.
Prior to the experiment, daily and weekly water consumption by the animals in one cell was measured. Dimebon was added in water in such amount that each animal would consume 3 mg/kg of Dimebon per day in average. Bottles with water containing Dimebon were replaced every 7 days. Animals in the control group were receiving pure water.
Prior to the experiment, all the animals were weighed, and an average weight was determined in every group, every cell, as well as the weight of all animals in every cell. The condition of skin, hair, and eyes were also determined by visual inspection. […] Evaluation of all these parameters was conducted on a monthly basis.
Statistics were calculated using Student T-test and ‘Chi-squared’ criteria.

acetylcholinesterase = acetylcholinesterase (Homo sapiens, UniProt P22303); conditions: recombinant enzyme and fresh blood samples from three volunteers; read-out: acetylcholinesterase half-maximal inhibitory concentration (IC50); cited from earlier work
NMDA receptor = conditions: read-out: NMDA receptor inhibition constant (Ki); cited from earlier work
[2] = human clinical studies; cited from earlier work
[3] = system: SK—N—SH human neuroblastoma cells; conditions: ionomycin-treated cells (70 percent without drug); picomolar concentrations; cited from earlier work
[4] = system: SK—N—SH human neuroblastoma cells; conditions: ionomycin-treated cells (40 percent without drug); picomolar concentration; cited from earlier work
[5] = system: neuroblastoma line (SH—SY5Y); conditions: pre-treatment with one nano-molar; cited from earlier work
[6] = system: primary rat cortical neurons; conditions: cultured three days; picomolar concentrations; compared with BDNF at maximally effective concentrations; cited from earlier work
[7] = system: patients with mild to moderate AD; conditions: cited from earlier work
[8] = system: mitochondrial permeability transition pores; conditions: MPP(+) and beta-amyloid fragment 25-35; cited from earlier work

Sequence of acetylcholinesterase (P22303 32-574 limits assumed): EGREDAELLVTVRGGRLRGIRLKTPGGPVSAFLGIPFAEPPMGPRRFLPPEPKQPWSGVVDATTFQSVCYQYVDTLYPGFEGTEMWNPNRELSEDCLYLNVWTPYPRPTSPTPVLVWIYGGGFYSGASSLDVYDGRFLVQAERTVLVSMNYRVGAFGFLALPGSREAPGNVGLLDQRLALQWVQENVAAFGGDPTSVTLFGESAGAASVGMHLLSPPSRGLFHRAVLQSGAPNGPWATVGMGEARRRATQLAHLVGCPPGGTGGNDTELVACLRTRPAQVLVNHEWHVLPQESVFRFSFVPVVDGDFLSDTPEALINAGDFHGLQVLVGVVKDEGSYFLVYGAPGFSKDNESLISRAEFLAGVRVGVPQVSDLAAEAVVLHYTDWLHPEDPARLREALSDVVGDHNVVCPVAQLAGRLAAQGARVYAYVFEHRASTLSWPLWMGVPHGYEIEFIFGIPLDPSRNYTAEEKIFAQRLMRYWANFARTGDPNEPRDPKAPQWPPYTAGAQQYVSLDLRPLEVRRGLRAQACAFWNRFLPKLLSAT

Cc1ccc2c(c1)c1c(n2CCc2ccc(C)nc2)CCN(C)C1 [dimebon]
calcium-blocking properties (specific glutamate-induced 45Ca uptake) [1]: pronounced calcium-blocking properties | age-related weight depletion (C57/B female mice): No weight depletion was observed | development of non-fatal pathologies (loss of vision and alopecia) (C57/B female mice): slowing of the development of non-fatal pathologies | probability of death (C57/B female mice; from age 12 months): lower in all age groups | amount of animals with cataract vs control (C57/B female mice; 13 to 20 months old mice): significantly less | IC50 (acetylcholinesterase): 31 to 72 µM | Ki (NMDA receptor): 97 µM | participants/patients reporting gastrointestinal problems [2]: less than 3% | JC-1 red/green ratio relative to control cells [3]: 85-90% | cell survival (MTT) relative to control cells [4]: 75-85% | protection of mitochondrial function (TMRM probe) [5]: protected cells from ionomycin-induced stress | neurite outgrowth [6]: increased neurite outgrowth as well as did BDNF | clinical endpoints and tolerability in one-year trial ([7]; one-year randomized double-blinded placebo-controlled trial, 183 patients): met all five clinical endpoints with strong statistical significance, and was very well tolerated | safety and tolerability ([7]; six-month open-label extension, exposure to 18 months): no safety or tolerability issues | prevention of neurotoxin-induced opening of mitochondrial pores [8]: prevented
